{"source": "patent US8071508B2", "about": "“Process for preparing paste-extruded sulfonamide compositions” (priority 2002, dated 2011)", "data": [{"assay": "not given", "details": "cited from earlier work", "values": [{"compound": "O=C([O-])[O-].[K+].[K+]", "note": "[K2CO3, potassium carbonate]", "First pKa (conjugate acid)": 10.2, "Second pKa (conjugate acid)": 6.4}, {"compound": "O=P([O-])([O-])OP(=O)([O-])[O-].[K+].[K+].[K+].[K+]", "note": "[K4P2O7, potassium pyrophosphate]", "First pKa (conjugate acid)": 9.0, "Second pKa (conjugate acid)": 7.0, "Third pKa (conjugate acid)": 2.0}, {"compound": "O=C([O-])[O-].[Na+].[Na+]", "note": "[Na2CO3, sodium carbonate]", "First pKa (conjugate acid)": 10.2, "Second pKa (conjugate acid)": 6.4}, {"compound": "O.O=C([O-])[O-].[Na+].[Na+]", "note": "[Na2CO3.H2O, sodium carbonate monohydrate]", "First pKa (conjugate acid)": 10.2, "Second pKa (conjugate acid)": 6.4}, {"compound": "O=P([O-])([O-])OP(=O)([O-])[O-].[Na+].[Na+].[Na+].[Na+]", "note": "[Na4P2O7, sodium pyrophosphate]", "First pKa (conjugate acid)": 9.0, "Second pKa (conjugate acid)": 7.0, "Third pKa (conjugate acid)": 2.0}, {"compound": "sodium phosphate dodecahydrate [Na3PO4.12H2O]", "Second pKa (conjugate acid)": 7.2, "Third pKa (conjugate acid)": 2.1}]}, {"assay": "physchem", "details": "pH 7, aqueous buffer, thermodynamic from solid", "protocol": "At least 1 times up to about 5 times the amount of sulfonamide needed for saturation is added to a mixing vessel containing stock buffer solution at the test temperature (e.g., 20° C.). The mixture is magnetically stirred in the dark while being maintained at the test temperature. Samples are periodically removed for analysis. The samples are centrifuged using a high speed, temperature-controlled centrifuge at the test temperature for about 20 minutes at ≧12000 G to remove suspended particles. An aliquot of each supernatant is taken for analysis.\nThe concentration of sulfonamide in the supernatant is determined by a high pressure liquid chromatography (HPLC) method suitable for the particular sulfonamide. Typically the HPLC method will use a reversed phase chromatography column and UV detection. […] Also, the pH of the supernatant is measured using a calibrated pH meter capable of resolving differences of 0.1 pH units or less to verify that the pH is 7. Samples are successively withdrawn from the mixing vessel and analyzed until three successive samples show little or no variation in concentration. The test is preferably replicated to ensure accuracy.", "units": {"solubility": "µg/mL"}, "values": [{"compound": "COC(=O)c1ccccc1CS(=O)(=O)NC(=O)Nc1nc(OC)cc(OC)n1", "note": "[bensulfuron-methyl, methyl 2-[[[[[(4,6-dimethoxy-2-pyrimidinyl)amino]carbonyl]amino]-sulfonyl]methyl]benzoate]", "solubility": "< 1000"}, {"compound": "CCOC(=O)c1ccccc1S(=O)(=O)NC(=O)Nc1nc(Cl)cc(OC)n1", "note": "[chlorimuron-ethyl, ethyl 2-[[[[(4-chloro-6-methoxy-2-pyrimdinyl)amino]carbonyl]amino]sulfonyl]benzoate]", "solubility": "1000 to 10000"}, {"compound": "COC(=O)c1ccccc1S(=O)(=O)NC(=O)Nc1nc(C)nc(OC)n1", "note": "[metsulfuron-methyl, methyl 2-[[[[(4-methoxy-6-methyl-1,3,5-triazin-2-yl)amino]carbonyl]amino]sulfonyl]-benzoate]", "solubility": "1000 to 10000"}, {"compound": "COC(=O)c1ccccc1S(=O)(=O)NC(=O)Nc1nc(C)cc(C)n1", "note": "[sulfometuron-methyl, methyl 2-[[[[(4,6-dimethyl-2-pyrimidinyl)amino]carbonyl]amino]sulfonyl]benzoate]", "solubility": "< 1000"}, {"compound": "COC(=O)c1ccccc1S(=O)(=O)NC(=O)N(C)c1nc(C)nc(OC)n1", "note": "[tribenuron-methyl, methyl 2-[[[[N-(4-methoxy-6-methyl-1,3,5-triazin-2-yl)-N-methylamino]carbonyl]-amino]sulfonyl]benzoate]", "solubility": "1000 to 10000"}]}, {"assay": "not given", "details": "in water at ambient temperatures, typically about 20 to 25° C.; cited from earlier work", "values": [{"compound": "COc1cc(OC)nc(NC(=O)NS(=O)(=O)N(C)S(C)(=O)=O)n1", "note": "[amidosulfuron, N-[[[[(4,6-dimethoxy-2-pyrimdinyl)amino]carbonyl]amino]-sulfonyl]-N-methylmethanesulfonamide]", "pKa": 3.6}, {"compound": "COCCOc1ccccc1S(=O)(=O)NC(=O)N=c1nc(OC)[nH]c(OC)n1", "note": "[cinosulfuron, N-[[(4,6-dimethoxy-1,3,5-triazin-2-yl)amino]carbonyl]-2-(2-methoxyethoxy)benzenesulfonamide]", "pKa": 4.7}, {"compound": "CCOc1nc(F)cc2nc(S(=O)(=O)Nc3c(Cl)cccc3C(=O)OC)nn12", "note": "[cloransulam-methyl, methyl 3-chloro-2-[[(5-ethoxy-7-fluoro[1,2,4]-triazolo[1,5-c]pyrimidin-2-yl)sulfonyl]amino]benzoate]", "pKa": 4.8}, {"compound": "CCOc1nc(NC)nc(NC(=O)NS(=O)(=O)c2ccccc2C(=O)OC)n1", "note": "[ethametsulfuron-methyl, methyl 2-[[[[[4-ethoxy-6-(methylamino)-1,3,5-triazin-2-yl]amino]carbonyl]amino]sulfonyl]benzoate]", "pKa": 4.6}, {"compound": "COc1ncc(F)c2nc(S(=O)(=O)Nc3c(F)cccc3F)nn12", "note": "[florasulam, N-(2,6-difluorophenyl)-8-fluoro-5-methoxy[1,2,4]triazolo[1,5-c]pyrimidine-2-sulfonamide]", "pKa": 4.5}, {"compound": "COC(=O)c1c(Cl)nn(C)c1S(=O)(=O)NC(=O)Nc1nc(OC)cc(OC)n1", "note": "[halosulfuron-methyl, methyl 3-chloro-5-[[[[(4,6-dimethoxy-2-pyrimidinyl)amino]carbonyl]amino]sulfonyl]-1-methyl-1H-pyrazole-4-carboxylate]", "pKa": 3.4}, {"compound": "CCOC(=O)c1cnn(C)c1S(=O)(=O)NC(=O)Nc1nc(OC)cc(OC)n1", "note": "[pyrazosulfuron-ethyl, ethyl 5-[[[[(4,6-dimethoxy-2-pyrimidinyl)amino]carbonyl]amino]sulfonyl]-1-methyl-1H-pyrazole-4-carboxylate]", "pKa": 3.7}, {"compound": "COc1nc(C)nc(NC(=O)NS(=O)(=O)c2ccccc2OCCCl)n1", "note": "[triasulfuron, 2-(2-chloroethoxy)-N-[[(4-methoxy-6-methyl-1,3,5-triazin-2-yl)amino]carbonyl]benzenesulfonamide]", "pKa": 4.6}, {"compound": "COc1cc(OC)nc(NC(=O)NS(=O)(=O)c2ncccc2OCC(F)(F)F)n1", "note": "[trifloxysulfuron, N-[[(4,6-dimethoxy-2-pyrimidinyl)amino]-carbonyl]-3-(2,2,2-trifluoroethoxy)-2-pyridinesulfonamide]", "pKa": 4.8}, {"compound": "N-[[[2-(cyclopropylcarbonyl)phenyl]amino]sulfonyl]-N^1-(4,6-dimethoxypyrimidin-2-yl)urea [cyclosulfamuron]", "pKa": 5.0}, {"compound": "methyl 2-[[[[[4,6-bis(trifluoromethoxy)-2-pyrimidinyl]amino]carbonyl]amino]sulfonyl]-benzoate [primisulfuron-methyl]", "pKa": 3.5}]}]}
